# Source: ChEMBL document CHEMBL1201862, “PubChem BioAssay data set” (2004)
# Calls of active or inactive are those of the source. No stated cut-off is given here; in the data, actives have a measured IC50 and inactives only a lower limit.
# Target: Envelope glycoprotein gp160 (Human immunodeficiency virus 1, UniProt Q6QLK5)
# Assay: inhibitors of HIV fusion peptide binding, primary screen, biochemical, uHTS, fluorescence dequenching (AID 1986)
# Envelope glycoprotein gp160, sequence (Q6QLK5 whole entry, the tested form may be a part): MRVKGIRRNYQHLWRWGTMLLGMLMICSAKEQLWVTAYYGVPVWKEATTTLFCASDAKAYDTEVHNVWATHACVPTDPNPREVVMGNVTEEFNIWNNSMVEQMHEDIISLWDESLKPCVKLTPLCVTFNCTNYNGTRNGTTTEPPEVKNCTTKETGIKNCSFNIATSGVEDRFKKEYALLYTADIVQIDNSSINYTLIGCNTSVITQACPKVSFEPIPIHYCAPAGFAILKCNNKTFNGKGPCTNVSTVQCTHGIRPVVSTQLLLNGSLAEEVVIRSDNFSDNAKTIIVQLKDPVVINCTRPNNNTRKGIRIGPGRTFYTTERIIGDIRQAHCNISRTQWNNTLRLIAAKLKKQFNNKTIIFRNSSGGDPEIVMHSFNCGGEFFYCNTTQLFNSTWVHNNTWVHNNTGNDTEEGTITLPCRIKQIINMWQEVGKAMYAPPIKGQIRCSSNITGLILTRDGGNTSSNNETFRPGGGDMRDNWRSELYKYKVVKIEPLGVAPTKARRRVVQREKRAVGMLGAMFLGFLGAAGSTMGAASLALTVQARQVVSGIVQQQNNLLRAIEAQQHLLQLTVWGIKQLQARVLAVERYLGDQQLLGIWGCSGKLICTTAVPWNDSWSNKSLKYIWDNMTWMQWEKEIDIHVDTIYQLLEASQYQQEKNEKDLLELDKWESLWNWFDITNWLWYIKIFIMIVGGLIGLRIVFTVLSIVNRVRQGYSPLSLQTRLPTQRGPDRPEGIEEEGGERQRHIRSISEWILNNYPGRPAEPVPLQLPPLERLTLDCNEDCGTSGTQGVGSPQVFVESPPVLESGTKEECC
row,Compound,IC50
1,O=C(CCN1C(=O)/C(=C\C=C\c2ccccc2)SC1=S)Nc1ccccc1C(=O)O,20.2 µM (active)
2,COc1cc(/C=C2/SC(=S)NC2=O)ccc1OS(=O)(=O)c1ccc(C)cc1,16.5 µM (active)
3,O=C(O)c1cc(-c2ccc(-c3c(-c4ccc5c(c4)OCO5)noc3-c3ccsc3)cc2)nc2ccccc12,52.2 µM (active)
4,O=C(Nc1cc(S(=O)(=O)N2CCCCC2)ccc1Cl)c1ccccc1NS(=O)(=O)c1ccc(F)cc1,13.4 µM (active)
5,O=C(O)COc1ccccc1/C=N/Nc1ccc(S(=O)(=O)Nc2ccc(Cl)cc2)cc1[N+](=O)[O-],19.6 µM (active)
